Assay results published in US8962891B2, “Synthetic analogs of sphingolipids” (Hadasit Medical Research Services & Development Limited, priority 2007, dated 2015).
One block for each molecule: values may come before it.

Tests used:
Du-145 = assay: IC50 in cancer cell lines (Table 1), Du-145; type: cell-based; details: Homo sapiens, Du-145 (Prostate)
LNCaP = assay: IC50 in cancer cell lines (Table 1), LNCaP; type: cell-based; details: Homo sapiens, LNCaP (Prostate)
PC-3 = assay: IC50 in cancer cell lines (Table 1), PC-3; type: cell-based; details: Homo sapiens, PC-3 (Prostate)
CRL-5803 = assay: IC50 in cancer cell lines (Table 1), CRL-5803; type: cell-based; details: CRL-5803 (NSCLC, Lung carcinoma), incubation 24 hours, FCS yes, 0.1 × 10^6/ml plated cells
CRL-1687 = assay: IC50 in cancer cell lines (Table 1), CRL-1687; type: cell-based; details: CRL-1687 (Pancreas), incubation 24 hours, FCS yes, 0.2*10^6/ml plated cells
CRL-5891 = assay: IC50 in cancer cell lines (Table 1), CRL-5891; type: cell-based; details: CRL-5891 (NSCLC, Lung carcinoma), incubation 24 hours, FCS no, 0.1 × 10^6/ml plated cells
MEL624 = assay: IC50 in cancer cell lines (Table 1), MEL624; type: cell-based; details: MEL624 (Melanoma), incubation 24 hours, FCS yes, 0.1 × 10^6/ml plated cells
CRL-1976 = assay: IC50 in cancer cell lines (Table 1), CRL-1976; type: cell-based; details: CRL-1976 (Sarcoma), incubation 24 hours, FCS yes, 0.2*10^6/ml plated cells
HL-60 = assay: IC50 in cancer cell lines (Table 1), HL-60; type: cell-based; details: Homo sapiens; HL-60 (Promyelocytic leukemia), incubation 24 hours, FCS no, 0.1 × 10^6/ml plated cells
Pancreas tumor cells = assay: Pancreas tumor cell viability after combined treatment (MTT test); type: cell-based; details: 24 h; for cell viability (MTT), combination of AD2730 and ADYZ197: 2 μM AD2730 combined with 10 μM ADYZ197
Method: FIG. 3A-3B: The viability of pancreatic cells using different drug combination for 24, h (MTT test)
The inventors next examined the effect of combining the compound of the invention with known chemotherapeutic drugs. Pancreas tumor cells were incubated with 1 μM taxol and 2 μM AD2750, (separately and in combination). The results are shown in the left part of the graph, in FIG. 3A, as percent of viable cells (checked by MTT). A combination of 20 μM fluorouracil and 8 μM AD2750 is shown in the right part of the graph, in FIG. 3A.
The inventors next examined the potential anti-cancerous effect of other compounds of Formula II. Therefore, pancreas tumor cells were incubated with 2 μM AD2730 and 10 μM ADYZ197, separately and in combination. The results are presented in the left part of the graph, in FIG. 3B, as percent of viable cells (checked by MTT).

CCL-224 = assay: IC50 in cancer cell lines (Table 1), CCL-224; type: cell-based; details: CCL-224 (Colon), incubation 24 hours, FCS no, 0.2*10^6/ml plated cells
MDA-MB-435 cells = assay: MDA-MB-435 survival experiment in nude mice; type: in vivo; details: CD1-nude mice injected iv with 3×10^6 MDA-MB-435 cells; 20 mg/kg in the drinking water beginning day 1; to day 100
Method: CD1-nude mice were injected iv with 3×10^6 MDA-MB-435 cells, which are usually considered as metastatic human breast cancer, but recently are also considered as model cells for melanoma. The mice were treated with AD2750, 20 mg/kg in the drinking water beginning day 1. On day 100, the remaining mice were sacrificed, and the pathology was determined.

[1] = test system: pancreas tumor cells (CRL-1687); assay: Pancreas tumor (CRL-1687) growth in CD1-nude mice; type: in vivo; details: 5×10^6 CRL-1687 cells id, 30 mg/kg ip in 10% CE beginning day 1, up to 35 days
Method: In order to examine the applicability of the compounds of the invention as an anti-cancerous drug, the inventors next examined the effect of i.p. administration of AD2750, on pancreas tumor. Therefore, CD1-nude mice were injected id with 5×10^6 pancreas tumor cells (CRL-1687). The mice were treated ip, with AD2750, beginning day 1, 30, mg/kg in 0.2 ml 10% CE, for up to 35 days. Tumor size was measured and calculated every 5-7 days beginning day 8.

BxPC-3 tumor = assay: BxPC-3 human pancreatic tumor xenograft efficacy study; type: in vivo; details: BxPC-3 s.c. in athymic NCr-nu/nu mice
Text: BxPC-3 Human Pancreatic Tumor Model
Thirty-to-forty mg tumor fragments of BxPC-3 tumor from a continuous in vivo passage were implanted subcutaneously (sc) into athymic NCr-nu/nu mice using 12-gauge trocar needles.
Animals were purchased from NCI-approved animal facilities (4-5 weeks old) and acclimated in the laboratories one week prior to experimentation. The animals were housed in microisolator cages in a 12-hour light/dark cycle. Animals received filter-sterilized water and sterile rodent food ad libitum. Cages were changed a minimum of twice weekly. The animals were weighed twice weekly and observed daily (for about sixty days of experiment) for clinical signs.
Tumor Measurements and Body Weights: Tumors measurements and animal body weights are recorded twice weekly. Tumor volume was determined by caliper measurements (mm) and using the formula for an ellipsoid sphere: Length×Width^2/2=Volume (mm^3)
This commonly used formula is also used to calculate tumor weight, assuming unit density (1 mm^3=1 mg).
Parameters Evaluated: For sc tumors trials, a T-C value based on 1, 2, 3 or 4 tumor volume doubling time (days), as appropriate for the particular trial, was made. This evaluation is based on tumor size of the control animals at the end of the treatment period. A T/C (%) or T/C (%) value was determined. […]

[2] = incubation 24 hours, FCS yes, 0.1 × 10^6/ml plated cells
[3] = incubation 24 hours, FCS no, 0.1 × 10^6/ml plated cells
[4] = incubation 48 hours, FCS yes, 0.1 × 10^6/ml plated cells
[5] = incubation 72 hours, FCS yes, 0.05 × 10^6/ml plated cells

IC50 (Du-145; [2]): 7.5 µM
IC50 (LNCaP; [3]): 42.9 µM
IC50 (LNCaP; [4]): 23.9 µM
IC50 (LNCaP; incubation 72 hours, FCS yes, 0.5 × 10^6/ml plated cells): 3 µM
IC50 (PC-3; [4]): 8.2 µM
IC50 (PC-3; [5]): 4.4 µM
IC50 (CRL-5803): 20 µM
IC50 (CRL-1687): 22 µM
IC50 (CRL-5891): 10 µM
IC50 (MEL624): 3 µM
IC50 (CRL-1976): 20 µM
IC50 (HL-60): 15 µM
SMILES: CCCCCCCCCCCCCCCCCCNC(CO)(CO)CO [ADYZ197, 2-(octadecylamino)-2-(hydroxymethyl)propane-1,3-diol]
cell viability (MTT), combination of AD2730 and ADYZ197 (Pancreas tumor cells): significant synergistic effect on reduction of cell viability
tumor cell viability (MTT), combination with fluorouracil (Pancreas tumor cells; 10 μM ADYZ197 combined with 20 μM fluorouracil): significant reduction of tumor cell viability

SMILES: CCCCNC(CO)C(O)c1ccccc1 (centres unmarked) [AD2730, 2-(butylamino)-1-phenylpropane-1,3-diol]
cell viability (MTT), combination of AD2730 and ADYZ197 (Pancreas tumor cells): significant synergistic effect on reduction of cell viability

IC50 (Du-145; [3]): > 50 µM
IC50 (PC-3; [3]): > 50 µM
SMILES: CCCCCCCCCCNC(CO)(CO)CO [ADYZ195, 2-(decylamino)-2-(hydroxymethyl)propane-1,3-diol]

SMILES: CCCCCCCCCCCCCCNC(CO)CO [AD2750, 2-(tetradecylamino)propane-1,3-diol]
IC50 (Du-145; [3]): 3.3 µM
IC50 (Du-145; [5]): 7.5 µM
IC50 (LNCaP; LNCaP, 24 h, incubation 24 hours, FCS no, 0.1 × 10^6/ml plated cells): 4.9 µM
IC50 (LNCaP; LNCaP, 24 h, incubation 24 hours, FCS yes, 0.1 × 10^6/ml plated cells): 15.2 µM
IC50 (LNCaP; LNCaP, 48 h, incubation 48 hours, FCS yes, 0.1 × 10^6/ml plated cells): 8.7 µM
IC50 (LNCaP; LNCaP, 72 h, incubation 72 hours, FCS yes, 0.05 × 10^6/ml plated cells): 3.9 µM
IC50 (PC-3; [2]): 12.2 µM
IC50 (PC-3; [5]): 6.8 µM
IC50 (CRL-5803): 11 µM
IC50 (CRL-1687): 15 µM
IC50 (CRL-5891): 8 µM
IC50 (MEL624): 9 µM
IC50 (CRL-1976): 5 µM
IC50 (CCL-224): 13 µM
survival of treated animals (MDA-MB-435 cells): increased survival
tumor incidence (MDA-MB-435 cells): significantly reduced tumor incidence
reduction in tumor volume [1]: about 5 folds
tumor cell viability (MTT), combination with Taxol (Pancreas tumor cells; 2 μM AD2750 combined with 1 μM taxol): markedly reduced tumor cell viability
tumor cell viability (MTT), combination with fluorouracil (Pancreas tumor cells; 8 μM AD2750 combined with 20 μM fluorouracil): markedly reduced tumor cell viability
tumor volume, monotherapy (BxPC-3 tumor; 20 or 30 mg/kg i.p. daily for 28 days, vs vehicle): clearly reduced tumor volume in a dose dependent manner
tumor volume, combination with Camptosar (BxPC-3 tumor; AD2750 20 or 30 mg/kg with Camptosar 60 or 30 mg/kg i.p. for 28 days): significant reduction in tumor volume
